{"source": "patent US3988340A", "about": "“6-Alkoxymethyl-1,2,3,5-tetrahydroimidazo[2,1-b]quinazolin-2-ones and 7-alkoxymethyl-6-[H]-1,2,3,4-tetrahydropyrimido[2,1-b]quinazolin-2-ones” (Bristol-Myers Company, priority 1975, dated 1976)", "key": {"[1]": {"assay": "Mean aortic blood pressure in rats after oral administration", "format": "in vivo", "conditions": "50 mg/kg oral; for Mean Aortic Blood Pressure % Change / Mean Aortic Blood Pressure: N=9, mean ± 1 S.E.", "method": "The blood pressure of unanesthetized rats and dogs was measured directly by means of a transducer attached to an intra-arterial cannula and in anesthetized dogs by a mercury manometer attached to a carotid cannula.\nThe compounds of the instant invention were tested as the hydrochloride salts by the above method in normotensive rats in doses of 50 mg./kg. orally.\nCompound 12a (BL-4784a) was tested for its hypotensive activity in rats as follows:\nRats were dosed orally with the test drug (50 mg/kg) or saline and blood pressure measurements were made at 30, 90, 150 and 300 mins. after drug administration.\nSaline administration in a volume equivalent to drug administration had only a minimal effect."}, "[2]": {"system": "Rabbit Platelet Rich Plasma", "assay": "In vitro inhibition of induced platelet aggregation in the aggregometer, rabbit platelet rich plasma", "format": "cell-based", "conditions": "Oryctolagus cuniculus, read-out: EC50 & 95% Confidence Limits", "method": "The aggregometer method of Born (1), as modified by Mustard et al. (2) was used to assess the in vitro activity of the various compounds as to inhibition of adenosine diphosphate (ADP) and collagen induced platelet aggregation. Platelet rich plasma was separated by centrifugation from citrated (3.8 percent) rabbit blood. […] (3) was used to induce aggregation. The various compounds tested were dissolved in dimethylsulfoxide (DMSO) so that 5 mcl. added to the platelet rich plasma would yield the desired test concentration. Vehicle control trials were done and compared with aggregation induced in platelet rich plasma containing various concentrations of the test compounds. Dose response curves were obtained and Effective Concentration (EC50) values calculated.\nCompound 12a (BL-4784A) has been evaluated in a series of in vitro, ex vivo and in vivo animal models of platelet aggregation and thrombosis."}, "Dog Platelet Rich Plasma [3]": {"system": "Dog Platelet Rich Plasma", "assay": "In vitro inhibition of ADP induced platelet aggregation in the aggregometer, dog platelet rich plasma", "format": "cell-based", "conditions": "Canis lupus familiaris, read-out: EC50 & 95% Confidence Limits"}, "Dog Platelet Rich Plasma [4]": {"system": "Dog Platelet Rich Plasma", "assay": "Ex vivo ADP induced platelet aggregation in dog PRP after oral drug administration", "conditions": "Canis lupus familiaris, PRP obtained before and 1 hr. after oral drug administration, read-out: ED50, ex vivo inhibition of ADP induced aggregation", "method": "BL-4784A was also tested ex vivo in dogs where ADP was used to induce aggregation in PRP samples obtained before and 1 hr. after oral drug administration.\nBefore dosing the animals, blood samples are taken. The blood is centrifuged to obtain the blood platelet-rich plasma. Aggregation of this plasma is induced with ADP or collagen. This is the control.\nThe animals are then dosed with the compounds to be tested (orally or parenterally). Depending upon the route of administration, one to two hours are allowed to elapse after dosing. Blood is drawn and the same procedure as for the control in untreated animals.\nThe dose required to produce 50% inhibition of the aggregation is determined by dose response data obtained in this manner."}, "[5]": {"system": "biolaser induced thrombosis", "assay": "Biolaser induced thrombosis in the rabbit ear chamber", "format": "in vivo", "from_the_text": "(§1) Methodology for these three in vivo techniques has been previously reported (4, 5)."}, "[6]": {"system": "electrically induced carotid artery thrombosis", "assay": "Electrically induced carotid artery thrombosis in the dog", "format": "in vivo", "conditions": "Canis lupus familiaris, po", "from_the_text": "as §1"}, "[7]": {"assay": "Crystal deposits in tissues of animal species evaluated", "format": "in vivo", "conditions": "any tissue of any animal species evaluated up to the present time"}, "[8]": {"assay": "In vivo solubility of compound or metabolite", "format": "physicochemical", "conditions": "compound or its metabolite, versus BL-3459"}, "[9]": {"system": "blood platelet aggregation", "assay": "Blood platelet antiaggregative potency compared with BL-3459", "conditions": "versus BL-3459"}, "[10]": {"assay": "Hypotensive activity compared with BL-3459", "format": "in vivo", "conditions": "associated with antiaggregative activity; versus BL-3459"}, "[11]": {"assay": "Crystal formation in the liver of dogs at very high doses", "format": "in vivo, dog", "conditions": "compound or a metabolite"}}, "note": "Read-outs that look alike come from different tables or passages of the source."}
{"smiles": "COCc1cccc2c1CN1CC(=O)NC1=N2", "note": "[Compound 12a, 6-(α-methoxymethyl)-1,2,3,5-tetrahydroimidazo[2,1-b]quinazolin-2-one]", "values": [{"measurement": "Aortic blood pressure lowering", "setting": "[1]; result in words", "value": "significant lowering of aortic blood pressure"}, {"measurement": "Mean Aortic Blood Pressure % Change", "setting": "[1]; 30 min", "value": "-33 ± 4", "unit": "%"}, {"measurement": "Mean Aortic Blood Pressure", "setting": "[1]; 30 min, *P = <.05", "value": "73 ± 5", "unit": "mm Hg"}, {"measurement": "Mean Aortic Blood Pressure % Change", "setting": "[1]; 90 min", "value": "-27 ± 4", "unit": "%"}, {"measurement": "Mean Aortic Blood Pressure", "setting": "[1]; 90 min, *P = <.05", "value": "79 ± 3", "unit": "mm Hg"}, {"measurement": "Mean Aortic Blood Pressure % Change", "setting": "[1]; 150 min", "value": "-23 ± 2", "unit": "%"}, {"measurement": "Mean Aortic Blood Pressure", "setting": "[1]; 150 min, *P = <.05", "value": "84 ± 3", "unit": "mm Hg"}, {"measurement": "Mean Aortic Blood Pressure % Change", "setting": "[1]; 300 min", "value": "-20 ± 4", "unit": "%"}, {"measurement": "Mean Aortic Blood Pressure", "setting": "[1]; 300 min, *P = <.05", "value": "87 ± 3", "unit": "mm Hg"}, {"measurement": "Mean Aortic Blood Pressure", "setting": "[1]; time 0 min (before drug)", "value": "111 ± 3", "unit": "mm Hg"}, {"measurement": "EC50", "setting": "[2]; ADP induced (2.93 × 10^-5 M)", "value": 0.2, "unit": "µg/mL"}, {"measurement": "EC50", "setting": "[2]; Antigen-Antibody complex (egg albumin, 2 μg/ml), PRP from sensitized rabbits", "value": 0.13, "unit": "µg/mL"}, {"measurement": "EC50", "setting": "[2]; Arachidonic acid induced (50 μg/ml)", "value": 0.27, "unit": "µg/mL"}, {"measurement": "EC50", "setting": "[2]; Collagen induced", "value": 0.09, "unit": "µg/mL"}, {"measurement": "EC50", "setting": "[2]; Thrombin induced (1 unit per ml)", "value": 0.63, "unit": "µg/mL"}, {"measurement": "EC50", "setting": "Dog Platelet Rich Plasma [3]", "value": 0.19, "unit": "µg/mL"}, {"measurement": "ED50", "setting": "Dog Platelet Rich Plasma [4]", "value": 1.79, "unit": "mg/kg"}, {"measurement": "ED50", "setting": "[5]; Oryctolagus cuniculus, rabbit ear chamber, po", "value": 5.3, "unit": "mg/kg"}, {"measurement": "Activity in in vivo animal models of thrombosis", "setting": "[5]; result in words for three in vivo animal models", "value": "significant activity in three in vivo animal models"}, {"measurement": "ED50", "setting": "[6]", "value": 10.5, "unit": "mg/kg"}, {"measurement": "Crystal deposits in tissue", "setting": "[7]", "value": "no crystal deposits have been observed in any tissue of any animal species"}, {"measurement": "Solubility in vivo", "setting": "[8]", "value": "more soluble in vivo"}, {"measurement": "Potency as blood platelet antiaggregate", "setting": "[9]", "value": "more potent than BL-3459"}, {"measurement": "Degree of hypotensive activity", "setting": "[10]", "value": "lower degree of hypotensive activity"}]}
{"smiles": "Cc1cccc2c1CN1CC(=O)NC1=N2", "note": "[BL-3459]", "values": [{"measurement": "Crystal formation in liver", "setting": "[11]", "value": "formed crystals in the liver of dogs at very high doses"}]}
